Source: paper PMC11253624, “Unsaturated fatty acid perturbation combats emerging triazole antifungal resistance in the human fungal pathogen Aspergillus fumigatus” (mBio, 2024)
Values after ≈ are worked out from the molar mass of the structure shown. Where two headings read alike, the source gives them in different places.

How the values were obtained:
HeLa cells (ATCC CCL-2) = assay: Mammalian cell cytotoxicity (CC50); assay type: cell-based
Method: The half-maximal cytotoxic concentration (CC50) of each compound against HeLa cells (ATCC CCL-2) was measured as previously described ([50]). Each assay comprised three technical replicates, and each assay was repeated at least once. The mean values for each biological replicate were averaged, and the CC50 was determined using a four-parameter nonlinear curve fitting algorithm (GraphPad Prism). The average of the CC50s from two biological replicates was calculated and reported.

Caco-2 permeability = assay type: in vitro ADME; details: human
[1] = Aqueous solubility (nephelometric); assay type: physicochemical; details: kinetic from dmso stock
Method: The maximum aqueous solubility of each compound was determined using a nephelometric method as described ([51]). Each assay comprised three technical replicates, and each assay was repeated at least once. The reported solubility is the average of at least five technical replicates. […]

Rhizopus delemar = assay: CLSI-based microbroth dilution MIC, spectrum of activity; assay type: cell-based; details: strain 99-880; for MIC: Rhizopus delemar
P. variotii = assay: microbe, parasite or virus in culture; assay type: cell-based; details: Paecilomyces variotii; strain MYA-3630
Apophysomyces spp. = assay: CLSI-based microbroth dilution MIC, spectrum of activity; assay type: cell-based
Blastomyces dematitidis = assay: microbe, parasite or virus in culture; assay type: cell-based
Aspergillus niger = assay: CLSI-based microbroth dilution MIC, spectrum of activity; assay type: cell-based
Aspergillus terreus = assay: microbe, parasite or virus in culture; assay type: cell-based; details: strain AT1
Aspergillus nidulans = assay: microbe, parasite or virus in culture; assay type: cell-based; details: strain FGSC A4
Candida albicans = assay: CLSI-based microbroth dilution MIC for yeast; assay type: cell-based
Fusarium spp. = assay: CLSI-based microbroth dilution MIC, spectrum of activity; assay type: cell-based; details: solani and oxysporum
Cryptococcus neoformans = assay: FIC checkerboard assay MBX-7591 and oleic acid, C. neoformans; assay type: cell-based; details: H99, MBX-7591 + 31.25 μg/ml OA
Method: Single-treatment controls were completed with 50 µL of media to substitute the volume of the other compound. […] Additional untreated and media-only controls were added to the plate as described above. Incubation of the plates and MIC assessments (individual and in combination) were performed as described above. FIC calculations were done according to the established formula: ∑FIC=MIC combination compound A/MIC individual compound A + MIC combination compound B/MIC individual compound B . Synergy was considered equal or lower than 0.5, and antagonism was considered to be higher than 2. FIC scores reported represent between three and five biological replicates. All antifungal susceptibility testing was done in 96-well plates using RPMI 1640 media buffered with 165 mM of MOPS and pH 7 using NaOH. CLSI-based microbroth dilution assays were done in accordance with M27 ([49]). […] Additionally, an untreated control (100 µL of a stock of 2 × 10^3 spores/mL and 100 µL of media) and a media-only control (200 µL media) were included in the plate. The plate was covered in a Breathe-Eazy membrane to allow for uniform oxygen diffusion throughout the plate and incubated for 24 hours at 35°C (Candida spp.) or 72 hours at 35°C ± 5% CO2 (Cryptococcus neoformans).

[2] = tested on: A. fumigatus strain ATCC46645; assay: Murine model of invasive pulmonary aspergillosis; assay type: in vivo, mouse
Method: Outbred wild-type CD-1 female mice at 20–24 g (Charles River Laboratory, Raleigh, NC, USA) were randomized and housed in autoclaved cages at ≤4 mice per cage with HEPA-filtered air and water. Mice were immunosuppressed by subcutaneous injection with triamcinolone acetonide (Kenalong-10, Bristol-Myer Squibb) at 40 mg/kg of body weight. Twenty-four hours after immune suppression, mice were intranasally inoculated with 2 × 10^6 live conidia (in 40 µL of sterile PBS) or PBS alone as a control. A. fumigatus strain ATCC46645 was grown on 1% GMM for 3 days at 37°C, conidia were collected in 0.01% Tween, and washed three times in sterile PBS. Immediately after fungal inoculation, mice were intraperitoneally (IP) injected with either vehicle (5% DMSO/10% PS80/25% HPBCDX 0.07% sodium acetate) or MBX-7591 at 10 mg/kg of body weight (5% DMSO/10% PS80/25% HPBCDX 0.07% sodium acetate). Mice were injected IP with a second dose of vehicle or MBX-7591 at 10 mg/kg of body weight 8 hours after the first dose of the drug. Mice were sacrificed 24 hours post-fungal challenge, lungs were excised from the chest cavity, rinsed in sterile PBS, and flash frozen for fungal burden analysis. Relative fungal burden was assessed through qPCR quantitation of A. fumigatus 18S rDNA as previously described ([38][–][40]).

[3] = tested on: A. fumigatus CEA10 reference strain; assay: MIC of HTS hits vs A. fumigatus CEA10, CLSI microbroth dilution, with or without 32 µg/mL fluconazole; details: for MIC: Aspergillus fumigatus

O=C(c1ccsc1)N1CCC(Cc2ccc(COc3ccncc3)cc2)CC1 [MBX-7591]
CC50 (HeLa cells (ATCC CCL-2)): ≥ 100 µM | efflux ratio (Caco-2 permeability): 0.49 | Papp A→B (Caco-2 permeability; A→B, method b66 gives Papp in cm/s): 11 ×10⁻⁶ cm/s | Papp B→A (Caco-2 permeability; B→A, method b66 gives Papp in cm/s): 5.6 ×10⁻⁶ cm/s | solubility [1]: 50 µM (≈ 19.6 µg/mL) | MIC (Rhizopus delemar): 0.31 µg/mL (≈ 0.79 µM) | MIC (Rhizopus delemar; read-out: MIC UTHSC): ~0.25 µg/mL (≈ 0.637 µM) | MIC UTHSC (Rhizopus delemar): 0.25 µg/mL (≈ 0.637 µM) | MIC (P. variotii): > 32 µg/mL | MIC (Apophysomyces spp.; strain Apo1): 0.5 µg/mL (≈ 1.27 µM) | MIC (Apophysomyces spp.; strain Apo2): 16 µg/mL (≈ 40.8 µM) | MIC (Apophysomyces spp.; strain Apo3): 4 µg/mL (≈ 10.2 µM) | MIC (Blastomyces dematitidis; strain DI19-271): 0.5 µg/mL (≈ 1.27 µM) | MIC (Blastomyces dematitidis; strain DI19-277): 8 µg/mL (≈ 20.4 µM) | MIC (Blastomyces dematitidis; strain DI19-282): 4 µg/mL (≈ 10.2 µM) | MIC (Aspergillus niger; Aspergillus niger, strain AN1): > 32 µg/mL | MIC UTHSC (Aspergillus niger; strain AN2): > 32 µg/mL | MIC (Aspergillus terreus): > 32 µg/mL | MIC (Aspergillus nidulans): > 39.2 µg/mL | MIC (Candida albicans; strain SC5314): > 39.2 µg/mL | MIC (Candida albicans; strain SC5314, read-out: MIC UTHSC): > 32 µg/mL | MIC (Fusarium spp.): > 39.2 µg/mL | MIC (Fusarium spp.; read-out: MIC UTHSC): > 32 µg/mL | FIC value (Cryptococcus neoformans): > 4 | host toxicity in the IPA murine model ([2]; 10 mg/kg IP, two doses): no host-associated toxicity | lung fungal burden vs vehicle control (18S rDNA qPCR) ([2]; CD-1 mice, triamcinolone immunosuppressed, 10 mg/kg IP at 0 and 8 hours, lungs at 24 hours): over threefold decrease in fungal burden | MIC ([3]; read-out: MBX-7591 MIC vs A. fumigatus (+) FLC): 0.4 µM | MIC ([3]; read-out: MBX-7591 MIC vs A. fumigatus (−) FLC): 1.2 µM | MIC ([3]; read-out: MIC (+Flu)): 5 µM | MIC ([3]; read-out: MIC (-Fluc)): 20 µM | Fold MIC ([3]; MIC-FLC/MIC+FLC, Table S2): 4 | Ratio (MIC −FLC / MIC +FLC) ([3]; Table 1): 3
